Results on 20 compounds are retold here after PubChem BioAssay AID192 (DTP/NCI, 2004).

Values joined by “and” are separate entries in the source; they are usually repeats but may differ in a detail not shown here. Identical values can stand only once. Toxic doses and inconclusive results are not listed.

In the experiment the test system is BDF1 mice, B16 melanoma ip, median survival T/C. In words: NCI In Vivo Anticancer Drug Screen. Data for tumor model B16 Melanoma (intraperitoneal) in B6D2F1 (BDF1) mice. To be noted: endpoint: median survival time, higher = longer survival. In short, it runs like this:
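Each result divides a survival or tumor-size measurement in the compound-treated group by the same measurement in the vehicle group.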

Setting [1] is: dose: 25.0 mg/kg/injection, schedule: Q01DX009 (ip), vehicle: saline with Tween-80.
Where [2] appears, read: dose: 50.0 mg/kg/injection, schedule: Q01DX009 (ip), vehicle: saline with Tween-80.
Setting [3] is: dose: 100.0 mg/kg/injection, schedule: Q01DX009 (ip), vehicle: Klucel (hydroxypropylcellulose) (HPC).
Setting [4] is: dose: 100.0 mg/kg/injection, schedule: Q01DX009 (ip), vehicle: saline with Tween-80.
The mark [5] stands for this setting: dose: 200.0 mg/kg/injection, schedule: Q01DX009 (ip), vehicle: Klucel (hydroxypropylcellulose) (HPC).
[6] abbreviates: dose: 200.0 mg/kg/injection, schedule: Q01DX009 (ip), vehicle: saline with Tween-80.
[7] abbreviates: dose: 25.0 mg/kg/injection, schedule: Q01DX009 (ip), vehicle: Klucel (hydroxypropylcellulose) (HPC).
Setting [8] is: dose: 50.0 mg/kg/injection, schedule: Q01DX009 (ip), vehicle: Klucel (hydroxypropylcellulose) (HPC).
The mark [9] stands for this setting: dose: 100.0 mg/kg/injection, schedule: Q04DX003 (ip), vehicle: Klucel (hydroxypropylcellulose) (HPC).
[10] abbreviates: dose: 200.0 mg/kg/injection, schedule: Q04DX003 (ip), vehicle: Klucel (hydroxypropylcellulose) (HPC).
Where [11] appears, read: dose: 400.0 mg/kg/injection, schedule: Q04DX003 (ip), vehicle: Klucel (hydroxypropylcellulose) (HPC).
[12] abbreviates: dose: 100.0 mg/kg/injection, schedule: Q04DX003 (ip), vehicle: saline with Tween-80.
The mark [13] stands for this setting: dose: 75.0 mg/kg/injection, schedule: Q01DX009 (ip), vehicle: Klucel (hydroxypropylcellulose) (HPC).
The mark [14] stands for this setting: dose: 150.0 mg/kg/injection, schedule: Q01DX009 (ip), vehicle: Klucel (hydroxypropylcellulose) (HPC).

Consider `COc1cc([C@@H]2c3cc4c(cc3[C@@H](OC3OC5CO[C@@H](c6cccs6)OC5C(O)C3O)[C@H]3COC(=O)[C@H]23)OCO4)cc(OC)c1O` (some centres not stated), for which the T/C is 183 % of control (dose: 0.25 mg/kg/injection, schedule: Q01DX009 (ip), vehicle: clinical formulation); 171 % of control (dose: 0.25 mg/kg/injection, schedule: Q01DX009 (ip), vehicle: saline); 223 % of control (dose: 0.5 mg/kg/injection, schedule: Q01DX009 (ip), vehicle: clinical formulation); 166 % of control and 214 % of control (dose: 0.5 mg/kg/injection, schedule: Q01DX009 (ip), vehicle: saline); 173 % of control (dose: 0.5 mg/kg/injection, schedule: Q01DX009 (ip), vehicle: water); 269 % of control (dose: 1.0 mg/kg/injection, schedule: Q01DX009 (ip), vehicle: clinical formulation). Further, the T/C reads like this: (dose: 1.0 mg/kg/injection, schedule: Q01DX009 (ip), vehicle: saline) 185 % of control and 254 % of control; (dose: 1.0 mg/kg/injection, schedule: Q01DX009 (ip), vehicle: water) 178 % of control; (dose: 2.0 mg/kg/injection, schedule: Q01DX009 (ip), vehicle: clinical formulation) 285 % of control; (dose: 2.0 mg/kg/injection, schedule: Q01DX009 (ip), vehicle: saline) 204 % of control and 285 % of control; (dose: 2.0 mg/kg/injection, schedule: Q01DX009 (ip), vehicle: water) 204 % of control; (dose: 4.0 mg/kg/injection, schedule: Q01DX009 (ip), vehicle: saline) 257 % of control.

Regarding `O=C(CC(NC(=O)OCc1ccccc1)C(=O)O)OCc1ccccc1` (configuration not stated), the T/C under setting [1] is 93 % of control; the T/C under setting [2] was 104 % of control; the T/C under setting [3] was 102 % of control; the T/C under setting [4] was 102 % of control; the T/C under setting [5] was 106 % of control; the T/C under setting [6] was 87 % of control.

In the case of `CC(=O)Nc1ccc(C)c(Cl)c1`, the T/C runs as follows: under setting [4], 111 % of control; under setting [6], 90 % of control.

Turning to `COc1cccc(C(=O)C(CCC#N)c2ccccc2)c1` (configuration not stated), the T/C is 103 % of control under setting [3]; 96 % of control under setting [5]; 103 % of control (dose: 400.0 mg/kg/injection, schedule: Q01DX009 (ip), vehicle: Klucel (hydroxypropylcellulose) (HPC)).

Consider `Cc1nc2ccc(CCN3CCN(c4ccccc4Cl)CC3)cc2[nH]1`, for which the T/C (dose: 4.12 mg/kg/injection, schedule: Q01DX009 (ip), vehicle: saline) is 90 % of control and the T/C (dose: 8.25 mg/kg/injection, schedule: Q01DX009 (ip), vehicle: saline) is 92 % of control.

`O=C(Nc1ccccc1)c1ccc(C(F)(F)F)cc1O`: the T/C runs as follows: under setting [7], 95 % of control; under setting [8], 95 % of control.

Turning to `O=C(CCCC(=O)N1CCOCC1)N1CCOCC1`, the T/C reads like this: under setting [9], 97 % of control; under setting [10], 95 % of control; under setting [11], 92 % of control.

As for `CCN(CC)S(=O)(=O)c1ccc(OC)c(N)c1`, the T/C reads like this: under setting [1], 107 % of control; under setting [2], 100 % of control; (dose: 50.0 mg/kg/injection, schedule: Q04DX003 (ip), vehicle: saline with Tween-80) 104 % of control; under setting [4], 105 % of control; under setting [12], 104 % of control.

For `NCC(O)c1ccc(O)c(O)c1` (configuration not stated), the T/C is, setting by setting: (dose: 1.56 mg/kg/injection, schedule: Q01DX009 (ip), vehicle: saline) 97 % of control and 105 % of control; (dose: 3.12 mg/kg/injection, schedule: Q01DX009 (ip), vehicle: saline) 95 % of control and 107 % of control; (dose: 6.25 mg/kg/injection, schedule: Q01DX009 (ip), vehicle: saline) 100 % of control and 106 % of control; (dose: 12.5 mg/kg/injection, schedule: Q01DX009 (ip), vehicle: saline) 99 % of control and 102 % of control.

Consider `Cc1ccc([N+](=O)[O-])cc1NC(=O)COc1ccc(Cl)cc1Cl`, for which the T/C reads like this: under setting [13], 90 % of control; under setting [14], 88 % of control; (dose: 300.0 mg/kg/injection, schedule: Q01DX009 (ip), vehicle: Klucel (hydroxypropylcellulose) (HPC)) 86 % of control.

With `O=c1[nH]cc(N(CCCl)CCCl)c(=O)[nH]1`, the T/C reads like this: (dose: 0.05 mg/kg/injection, schedule: Q01DX009 (ip), vehicle: saline with Tween-80) 95 % of control; (dose: 0.08 mg/kg/injection, schedule: Q01DX009 (ip), vehicle: saline with Tween-80) 105 % of control; (dose: 0.14 mg/kg/injection, schedule: Q01DX009 (ip), vehicle: saline with Tween-80) 112 % of control; (dose: 0.19 mg/kg/injection, schedule: Q01DX009 (ip), vehicle: saline) 107 % of control; (dose: 0.65 mg/kg/injection, schedule: Q01DX009 (ip), vehicle: saline with Tween-80) 170 % of control; (dose: 1.1 mg/kg/injection, schedule: Q01DX009 (ip), vehicle: saline with Tween-80) 205 % of control. For the same compound, under “dose: 1.5 mg/kg/injection, schedule: Q01DX009 (ip), vehicle: saline”, the T/C is 185 % of control.

As for `O=c1[nH]c(=O)n(C2CC(O)C(CO)O2)cc1Br` (configuration not stated), the T/C is 101 % of control under setting [7] and 117 % of control under setting [8].

For the compound `CCCCCCCCCCCC(=O)N(CCCC)CCCC`, the T/C (dose: 37.5 mg/kg/injection, schedule: Q01DX009 (ip), vehicle: Klucel (hydroxypropylcellulose) (HPC)) was 101 % of control; the T/C under setting [13] is 101 % of control; the T/C under setting [14] was 97 % of control.

Take `Cc1cc2ccc(OC(=O)c3ccc(N=C(N)N)cc3)cc2oc1=O`: the T/C (dose: 12.5 mg/kg/injection, schedule: Q01DX009 (ip), vehicle: saline with Tween-80) is 91 % of control; the T/C under setting [1] was 100 % of control; the T/C under setting [4] is 86 % of control; the T/C under setting [12] is 92 % of control; the T/C (dose: 200.0 mg/kg/injection, schedule: Q04DX003 (ip), vehicle: saline with Tween-80) was 95 % of control; the T/C (dose: 400.0 mg/kg/injection, schedule: Q04DX003 (ip), vehicle: saline with Tween-80) is 95 % of control.

On to `CCOC(=O)N1Cc2cc3cc(Cl)ccc3nc2C1`, for which the T/C was 103 % of control (dose: 8.0 mg/kg/injection, schedule: Q01DX009 (ip), vehicle: saline with Tween-80); 95 % of control (dose: 16.0 mg/kg/injection, schedule: Q01DX009 (ip), vehicle: saline with Tween-80); 93 % of control (dose: 32.0 mg/kg/injection, schedule: Q01DX009 (ip), vehicle: saline with Tween-80); 112 % of control (dose: 64.0 mg/kg/injection, schedule: Q01DX009 (ip), vehicle: saline with Tween-80).

Take `CCCCCCCCCCC(O)CN1CCN(c2ccc(C)cc2)CC1` (configuration not stated): the T/C is 92 % of control (dose: 12.5 mg/kg/injection, schedule: Q01DX009 (ip), vehicle: Klucel (hydroxypropylcellulose) (HPC)); 105 % of control under setting [7]; 86 % of control under setting [5].

On to `CC(=O)OCC(OC(C)=O)C(OC(C)=O)C(C#N)OC(C)=O` (configuration not stated), for which the T/C (dose: 12.5 mg/kg/injection, schedule: Q04DX003 (ip), vehicle: Klucel (hydroxypropylcellulose) (HPC)) is 100 % of control; the T/C (dose: 25.0 mg/kg/injection, schedule: Q04DX003 (ip), vehicle: Klucel (hydroxypropylcellulose) (HPC)) was 95 % of control; the T/C (dose: 50.0 mg/kg/injection, schedule: Q04DX003 (ip), vehicle: Klucel (hydroxypropylcellulose) (HPC)) is 97 % of control.

For `CC(=O)NC(=O)Nc1ccccc1`, the T/C under setting [9] is 97 % of control, the T/C under setting [10] was 95 % of control and the T/C under setting [11] was 100 % of control.

With `CCCCCCCCCCCCCCNC(=O)CCl`, the T/C is, setting by setting: under setting [3], 113 % of control; under setting [5], 106 % of control.

As to `COc1cc2cc3cc4cc(OC)c(OC)cc4c(C)[n+]3cc2cc1OC` (tested in a mixture with another compound), the T/C (dose: 10.0 mg/kg/injection, schedule: Q01DX009 (ip), vehicle: Klucel (hydroxypropylcellulose) (HPC)) was 96 % of control and the T/C (dose: 20.0 mg/kg/injection, schedule: Q01DX009 (ip), vehicle: Klucel (hydroxypropylcellulose) (HPC)) is 95 % of control.
